Common to all, as to assay: NCI anticancer screen, dose series, 48 h
Test [1] has as its system SNB-19 CNS.
For test [2], the system named is EKVX NSCLC.
For test [3], the system named is NCI-H460 lung.
Test [4] deals with RPMI-8226 leukemia.
The test system of test [5] is OVCAR-5 ovarian.
For test [6], the system named is M14 melanoma.
Test [7] relates to DU-145 prostate.
Test [8] concerns SF-268 CNS.
In test [9] the test system is U251 CNS.
Test [10] concerns OVCAR-4 ovarian.

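Dose response: 5 concentrations. Exposure: 48 h. Format: 96-well plates. Endpoint: linear interpolation; highest concentration if not reached. The concentration for full growth arrest is given as TGI.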

For the molecule `c1ccc(C(C(=Nc2ccc(Cc3ccc(N=C(C(c4ccccc4)c4ccccc4)N4CC4)cc3)cc2)N2CC2)c2ccccc2)cc1`, the TGI in test [1] was determined as 27.7 µM; in test [2], 25.9 µM; in test [3] it was 13.4 µM; in [4], 39.5 µM; in test [5] it was 24.5 µM; in [6], 70 µM. The TGI in test [7] was 28 µM; in [8], 21.8 µM; in test [9], 30.9 µM.
Turning to `Cn1c2ccccc2c2c(=S)c3ccccc3ccc21`, the TGI in test [1], in test [2], in test [3], in [10], in test [5] and in test [6] was more than 100 µM throughout. For the same molecule, the TGI in test [7], in test [8] and in [9] was more than 100 µM in each case.
Consider `N#CC(c1ccccc1)N(CCOCCOCCN(C(=O)c1ccccc1)C(C#N)c1ccccc1)C(=O)c1ccccc1` (stereo not drawn), for which the TGI in test [1], in [2], in test [3], in [10], in [5] and in test [6] was more than 100 µM in each case. Also, the TGI in test [7], in test [8] and in test [9] was more than 100 µM in each case.
For `CN1CCN(Cc2cc3c(nn2)-c2ccccc2C3=O)CC1`, the TGI in test [1], in test [2], in test [3], in test [4], in test [5] and in test [6] was more than 100 µM each time. Further, the TGI in test [7], in [8] and in test [9] was more than 100 µM in each case.
With `Nc1c(S(=O)(=O)c2ccc(Cl)cc2)c2nc3ccccc3nc2n2ccnc12`, the TGI in [1] is more than 100 µM; in test [2], more than 100 µM; in test [3], more than 100 µM; in test [10], 33.3 µM; in [4], more than 100 µM; in test [5], more than 100 µM. Moreover, the TGI in [6], in [8] and in test [9] was more than 100 µM in each case.
For `CC(C)C1=CC23CCC4C(C)(C(=O)O)CCCC4(C)C2CC1C1C(=O)N(CCCCCCN2C(=O)C4C5CC6C7(C)CCCC(C)(C(=O)O)C7CCC6(C=C5C(C)C)C4C2=O)C(=O)C13` (stereo not drawn), the TGI was 34.8 µM in test [1]; 21.6 µM in test [2]; 34.3 µM in [10]; more than 100 µM in [4]; 37.4 µM in [5]; 27.5 µM in test [6]. Moreover, the TGI was 26.8 µM in test [8] and 15.7 µM in test [9].
Consider `COc1ccc(NC(=O)CSc2nnc(-c3ccc(NC(C)=O)cc3)o2)cc1`, for which the TGI in test [2] was 43.4 µM; in [3], 34 µM; in test [10] it was 30.3 µM; in [5], more than 100 µM; in test [6], 33.8 µM; in [8], 34.8 µM. The TGI in test [9] amounted to 33.7 µM.
With `O=C(NN1C(=O)CS(=O)(=O)C1c1ccc(C(F)(F)F)cc1)c1ccncc1` (stereo not drawn), the TGI in test [1], in [3], in test [10], in test [4], in test [5] and in test [6] was more than 100 µM throughout. The TGI in test [8] and in test [9] was more than 100 µM each time.
In the case of `O=C1NC(O)CCN1C1OC(CO)C(O)C1O` (stereo not drawn), the TGI was more than 250 µM in test [1]; more than 250 µM in test [2]; more than 250 µM in test [3]; more than 250 µM in test [10]; more than 250 µM in test [4]; more than 145 µM in [5]. The figures for the TGI in test [8] and in [9] were more than 250 µM and more than 169 µM, respectively.
With `O=C(OCC(Cl)(Cl)Cl)N1CC[C@H](C2CCCCC2)C1`, the TGI in test [1] turned out to be 37.5 µM; in test [2], 32.4 µM; in test [3], 35.1 µM; in test [10], 31.2 µM; in test [5] it was 34.4 µM; in test [6], 39.8 µM. Further, the results for the TGI in [7], in test [8] and in test [9] were 31.8 µM, 36.3 µM and 13.6 µM, respectively.
Take `CC(C(=O)COCc1ccccc1)P1(=O)OC(C)(C)CN1C(C)(C)C` (stereo not drawn): the TGI in test [2], in [3], in test [10], in [4], in test [5] and in test [6] was more than 100 µM each time. Also, the TGI in test [7] and in [8] was more than 100 µM in each case.
On to `C=C1C(=O)[C@@]23CC[C@@H]4[C@@]5(C)CCC[C@@]4(OC5=O)[C@@]2(C)CC[C@@H]1C3`, for which the TGI was found to be 9.08 µM in [1]; 11.8 µM in [2]; 3.74 µM in test [3]; 5.28 µM in test [10]; 6.27 µM in [5]; 12.2 µM in test [7]. In addition, the TGI amounted to 6.12 µM in [8] and 7.05 µM in [9].
As for `Cc1cc(C[C@H]2O[C@@H]3OC(C)(C)O[C@@H]3[C@H]3OC(C)(C)O[C@H]32)c2ccccc2n1`, the TGI in test [1], in test [2], in test [3], in [10], in test [4] and in test [5] was more than 100 µM each time. Besides, the TGI in test [7], in [8] and in [9] was more than 100 µM each time.
Turning to `O=C(O)c1cccc(S(=O)(=O)NN2C(=O)CSC2c2ccc(Cl)cc2Cl)c1` (stereo not drawn), the TGI in test [1], in [2], in test [3], in test [4], in test [5] and in test [6] was more than 100 µM throughout. In addition, the TGI was more than 100 µM in test [7], more than 100 µM in [8] and 44.7 µM in test [9].
Consider `COC(=O)c1ccccc1CC1Cc2cccc(C)c2C1=O` (stereo not drawn), for which the TGI was more than 100 µM in test [1]; 41.9 µM in [2]; more than 100 µM in test [3]; more than 100 µM in [10]; more than 100 µM in test [5]; more than 100 µM in test [6]. In addition, the TGI in [7], in test [8] and in test [9] was more than 100 µM in each case.

The record behind these values is PubChem BioAssay (NCI).
